The source of these data is paper PMC7830893, “Four Novel Phenanthrene Derivatives with α-Glucosidase Inhibitory Activity from Gastrochilus bellinus” (Molecules, 2021).

A word on the IC50: it is the concentration that gives 50% inhibition. Lower therefore signals greater potency in that assay. Broadly, the Ki is a measure of affinity in units of concentration, obtained from inhibition or displacement. Low values mean a stronger hold on the target, high ones a looser hold on the target.

“Also recorded” adds a separate entry of the source.

For experiment [1], the system named is α-glucosidase. The experiment in a line: α-glucosidase enzyme kinetic study (Lineweaver–Burk and secondary plots). It counts as biochemical. To be noted: for mode of enzyme inhibition: Lineweaver–Burk plot. On the procedure:
The enzyme kinetics parameters (Km and Vmax) were determined by analyzing the double reciprocal Lineweaver–Burk plot (1/V vs. 1/[S]). Each experiment was carried out by varying the concentration of pNPG (2.0, 1.0, 0.5, and 0.25 mM) in the absence and presence of different concentrations of the test sample. The reaction was monitored at 405 nm by a microplate reader every 5 min for a total time of 25 min. Each experiment was performed in triplicate. […] For compound 3, secondary plots were plots of the inverted values of Km (1/Km) as a function of inhibitor concentration. The inhibition constant (Ki) was then calculated from the intersection point.

Experiment [2] relates to α-glucosidase. In words: α-glucosidase inhibitory assay (pNPG, absorbance at 405 nm). The following applies: for α-glucosidase inhibitory activity compared with acarbose: comparison with the drug acarbose; for IC50: pNPG substrate, 37 °C, mean ± SD, triplicate. In kind it is biochemical. How it is done: The α-glucosidase enzyme inhibition assay was carried out according to the method in our previous report. The inhibitory activity was determined by measuring the p-nitrophenol, a yellow color substance that can be monitored at 405 nm, released from p-nitrophenyl-α-D-glucopyranoside (pNPG) by the α-glucosidase enzyme. The test samples were initially dissolved in 50% DMSO, and then, 10 µL of the sample solution and 40 µL of 0.1 unit/mL α-glucosidase were incubated at 37 °C for 10 min. After that, to start the reaction, 50 µL of 2 mM pNPG was added to the mixture and incubated at 37 °C for 20 min. One hundred microliters of 1 M Na2CO3 was added to stop the reaction, and then, the absorbance was measured at 405 nm. […] Each experiment was performed in triplicate.

With `C[C@H]1O[C@H](O[C@H]2[C@H](O)[C@@H](O)[C@@H](O[C@H]3[C@H](O)[C@@H](O)C(O)O[C@@H]3CO)O[C@@H]2CO)[C@H](O)[C@@H](O)[C@@H]1N[C@H]1C=C(CO)[C@@H](O)[C@H](O)[C@H]1O` (some centres unmarked) [Acarbose, acarbose, reference compound], in the experiment with α-glucosidase [1], the “mode of enzyme inhibition” value was “competitive inhibition”. For the same compound, the Vmax with α-glucosidase [1] (inhibitor dose 387 µM) and in the experiment on α-glucosidase [1] (inhibitor dose 744 µM) was 0.1 ∆ A405/min in each case.

Consider `COc1c(O)cc2c3c1COc1c(Cc4ccc(O)cc4)c(O)cc(c1-3)CC2` [Compound 1, gastrobellinol A], for which, in the experiment on α-glucosidase [2], the “α-glucosidase inhibitory activity compared with acarbose” value is given as “higher activity than the drug acarbose; also recorded: higher α-glucosidase inhibitory activity than acarbose” and the IC50 stood at 88.7 ± 4.1 µM.

Consider `COc1cc2c3c(ccc4cc(O)c(OC)c(c43)CO2)c1Cc1ccc(O)cc1` [Compound 2, gastrobellinol B], for which, in the experiment with α-glucosidase [2], the “α-glucosidase inhibitory activity compared with acarbose” value is “higher activity than the drug acarbose; also recorded: higher α-glucosidase inhibitory activity than acarbose” and the IC50 was 97.8 ± 3.1 µM.

As to `COc1c(O)cc2ccc3c(Cc4ccc(O)cc4)c(O)cc4c3c2c1CO4` [Compound 3, gastrobellinol C], the “mode of enzyme inhibition” value in the experiment on α-glucosidase [1] is “competitive inhibition; also recorded: competitive inhibitor”. The same compound gave a Ki at α-glucosidase [1] (from secondary plot) of 87.3 µM. In the experiment with α-glucosidase [1] (inhibitor dose 20 µM, pNPG 0.25–2.0 mM), the Vmax was 0.1 ∆ A405/min. Further, in the experiment on α-glucosidase [1] (inhibitor dose 40 µM, pNPG 0.25–2.0 mM), the Vmax is given as 0.1 ∆ A405/min. Also, in the experiment with α-glucosidase [1] (unchanged at 20 µM and 40 µM compound 3), the “maximum velocity (Vmax)” value was found to be 0.1 A405/min. In the experiment with α-glucosidase [2], the “α-glucosidase inhibitory activity compared with acarbose” value was “higher activity than the drug acarbose; also recorded: higher α-glucosidase inhibitory activity than acarbose” and the IC50 came out at 45.9 ± 2.8 µM.

As to `COc1cc(/C=C/C=O)ccc1O` [Compound 7, coniferyl aldehyde], in the experiment with α-glucosidase [2], the “α-glucosidase inhibitory activity compared with acarbose” value is “higher activity than the drug acarbose; also recorded: higher α-glucosidase inhibitory activity than acarbose” and the IC50 was determined as 381 ± 9.3 µM.

Regarding `O=Cc1ccc(O)cc1` [Compound 8, 4-hydroxybenzaldehyde], the “α-glucosidase inhibitory activity compared with acarbose” value in the experiment with α-glucosidase [2] is “higher α-glucosidase inhibitory activity than acarbose”.

Regarding `COc1cc2ccc3cc(O)c(OC)c4c(=O)oc(c1)c2c34` [Compound 9, agrostophyllone], in the experiment with α-glucosidase [2], the “α-glucosidase inhibitory activity compared with acarbose” value is “higher activity than the drug acarbose” and the half-inhibitory concentration (IC50) stood at 281 ± 15.9 µM.

In the case of `COc1c(O)cc2c3c1COc1cc(O)c(Cc4ccc(O)cc4)c(c1-3)CC2` [Compound 13, 1-(4′-hydroxybenzyl)-imbricartin], in the experiment with α-glucosidase [2], the “α-glucosidase inhibitory activity compared with acarbose” value was “higher activity than the drug acarbose; also recorded: higher α-glucosidase inhibitory activity than acarbose” and the IC50 was found to be 53.7 ± 12.5 µM.

Consider `COc1c(O)cc2c3c1COc1cc(O)cc(c1-3)CC2` [Compound 15, imbricatin], for which, in the experiment on α-glucosidase [2], the “α-glucosidase inhibitory activity compared with acarbose” value is on record as “higher activity than the drug acarbose; also recorded: higher α-glucosidase inhibitory activity than acarbose” and the midpoint of inhibition, the IC50, lay at 301 ± 6.6 µM.
